Article PMC9354408, “How to Achieve Sufficient Endogenous Insulin Suppression in Euglycemic Clamps Assessing the Pharmacokinetics and Pharmacodynamics of Long-Acting Insulin Preparations Employing Healthy Volunteers” (Frontiers in Pharmacology, 2022)

Legend:
Assay type in all cases: in vivo, healthy Chinese men and women
[1] = Manual euglycemic glucose clamp, glucose infusion rate (pharmacodynamics); settings: for AUCGIR,0-24h / GIRmax / tGIRmax: 0.5 IU/kg s.c., arithmetic mean ± SD; for AUCGIR,0-12h: single 0.5 IU/kg s.c. IGlar (LY2963016 or Lantus), clamp up to 24 h, target BG 0.28 mmol/L below baseline, median (interquartile range); for GIRmax after correction / AUCGIR, 0–24 h after correction: corrected using the corresponding exogenous IGlar parameter as a covariant; for AUCGIR, 0–24 h after correction: first mention
Experimental: (§1) All enrolled subjects underwent a euglycemic glucose clamp lasting for up to 24 h after a 0.5-IU/kg IGlar injection. All the participants were restrained from strenuous exercise, smoking, alcohol, or caffeinated drinks. Since a C-peptide suppression of more than 50% is widely recognized as sufficient endogenous insulin suppression, the subjects fell into two groups based on the ratio of C-peptide reduction from baseline (group A: C-peptide reduction <50%; group B: C-peptide reduction ≥50%). The data were collected from a clinical trial (NCT03555305) ([Liu et al., 2021]), which was conducted to evaluate the pharmacokinetic and pharmacodynamic equivalence of an IGlar biosimilar (LY2963016) manufactured by Eli Lilly to Lantus manufactured by Sanofi.
At the dosing visit, an overnight fast of at least 8 h must be guaranteed prior to IGlar administration. Two catheters were placed into the antecubital vein and the hand vein, respectively, for 20% dextrose infusing and blood sampling correspondingly. The baseline of BG was defined as the mean of three BG measurements at 30, 20, and 10 min prior to the IGlar administration. A single dose (0.5 IU/kg) of Lantus or LY2963016 was subcutaneously injected into a lifted abdominal skinfold. A 0.1-ml blood sample was collected from the hand vein which was continuously heated in a warm blanket (55 ± 5 °C) at an interval of 10–20 min for the analysis of BG levels. A variable GIR was frequently adjusted and timely recorded to maintain the BG around 0.28 mmol/L below the baseline and represent the pharmacodynamic activity of IGlar, respectively.
The BG levels were immediately determined in whole blood at the bedside by a glucose analyzer (Biosen C_line, EKF Diagnostics, Barleben, Germany) with the glucose oxidase method. The measuring range of this method was 0.5–50 mmol/L with a high precision of 1.5%. The clamp would end if no exogenous glucose infusion was required for at least 0.5 h.
Individual GIR values were smoothed by a locally weighted scatterplot smoothing technique. The maximum GIR (GIRmax) and the total amount of glucose infused throughout the clamp (AUCGIR, 0–24 h) were defined as primary PD parameters. Secondary PD parameters included time to GIRmax (tGIRmax) and AUC of GIR from 0 to 12 h (AUCGIR, 0–12 h).

[2] = Pharmacokinetics of exogenous IGlar (total insulin radioimmunoassay, C-peptide corrected by Owens's method); settings: 0.5 IU/kg s.c., arithmetic mean ± SD; for AUCIGlar,0-12h / AUCIGlar,0-24h / IGlarmax: serum, C-peptide corrected
Experimental: as §1
(§2) A 6-ml blood sample for analysis of C-peptide and total insulin levels were collected before drug administration (0.5 and 0 h before dosing) and every 0.5–3 h throughout the clamp as described before ([Liu et al., 2021]). The whole blood sample was drawn into a serum tube and gently mixed by inversion (>5 times). Then the sample was required to clot for 30–60 min at room temperature. The tube was centrifuged at 1,500–2000g for 15–20 min to separate serum. The serum was transferred without red blood cells contained, and frozen at -70 °C until shipment for analysis. The concentration of total insulin was determined by a validated radioimmunoassay method ([Kuerzel et al., 2003]; [Shen et al., 2019]) with a quantification range of 50–2000 pmol/L at WuXi AppTec Co., Ltd. in Shanghai, China. The exogenous IGlar level was calculated by subtracting the endogenous insulin based on C-peptide using Owens’s method ([Owens, 1986]). The C-peptide concentration was analyzed by a direct chemiluminescent technology in Covance Laboratory (Shanghai, China) with a quantification range of 0.07–352 ng/ml.
(§3) If a measured value of total insulin or C-peptide was below the lower limit of quantification, it would be included in statistics as half of the limit. A calculated value of IGlar below zero after C-peptide correction would be excluded from the PK statistics. The primary PK parameters included the area under the curve (AUC) of IGlar from time 0–24 h (AUCIGlar, 0–24 h) and the maximum IGlar (IGlarmax) corrected by C-peptide. Other PK parameters included AUC of IGlar from 0 to 12 h (AUCIGlar, 0–12 h) and time to IGlarmax (tIGlarmax).

[3] = Serum total insulin during clamp (radioimmunoassay); parameters: AUCTotal insulin,0-12h / AUCTotal insulin,0-24h: unit not given here; settings: 0.5 IU/kg s.c., arithmetic mean ± SD; for AUCTotal insulin,0-12h / AUCTotal insulin,0-24h: serum, before C-peptide correction
Experimental: as §1, §2, §3

[4] = test system: endogenous insulin secretion; assay: Serum C-peptide during clamp (endogenous insulin suppression, direct chemiluminescence); settings: arithmetic mean ± SD; for Mean postdose C-peptide: after 0.5 IU/kg s.c. IGlar; for C-peptide reduction: postdose versus baseline
Experimental: as §1, §2, §3

[5] = group A (C-peptide reduction <50%), N = 52
[6] = group B (C-peptide reduction >=50%), N = 26

insulin glargine [IGlar]
AUCGIR,0-24h [1, 5]: 2,415 ± 953 mg/kg | GIRmax [1, 5]: 2.82 ± 1.06 mg/kg/min | tGIRmax [1, 5]: 666 ± 202 min | AUCGIR,0-12h [1, 5]: 989 (642) mg/kg | GIRmax after correction ([1]; group A): 2.96 mg/kg/min | AUCGIR, 0–24 h after correction ([1]; group A): 2,513 mg/kg | AUCGIR,0-24h [1, 6]: 2,891 ± 908 mg/kg | GIRmax [1, 6]: 3.36 ± 1.07 mg/kg/min | tGIRmax [1, 6]: 678 ± 180 min | AUCGIR,0-12h [1, 6]: 1,320 (615) mg/kg | GIRmax after correction ([1]; group B): 3.09 mg/kg/min | AUCGIR, 0–24 h after correction ([1]; group B): 2,697 mg/kg | tIGlarmax [2, 5]: 11.7 ± 3.97 h | AUCIGlar,0-12h [2, 5]: 1,099 ± 342 pmol/L×h | AUCIGlar,0-24h [2, 5]: 2,194 ± 597 pmol/L×h | IGlarmax [2, 5]: 122.7 ± 37.7 pmol/L | tIGlarmax [2, 6]: 11.6 ± 2.66 h | AUCIGlar,0-12h [2, 6]: 1,295 ± 360 pmol/L×h | AUCIGlar,0-24h [2, 6]: 2,534 ± 597 pmol/L×h | IGlarmax [2, 6]: 147.7 ± 42.5 pmol/L | Maximum total insulin [3, 5]: 151.8 ± 42.0 pmol/L | Time of maximum total insulin [3, 5]: 10.9 ± 5.55 h | AUCTotal insulin,0-12h [3, 5]: 1,444 ± 398 | AUCTotal insulin,0-24h [3, 5]: 2,853 ± 713 | Maximum total insulin [3, 6]: 162.1 ± 41.9 pmol/L | Time of maximum total insulin [3, 6]: 10.8 ± 3.77 h | AUCTotal insulin,0-12h [3, 6]: 1,510 ± 368 | AUCTotal insulin,0-24h [3, 6]: 2,958 ± 626 | Mean postdose C-peptide [4, 5]: 201 ± 74 pmol/L | C-peptide reduction ([4]; group A (defined by C-peptide reduction <50%), N = 52): 39.5 ± 6.7% | Mean postdose C-peptide [4, 6]: 134 ± 50 pmol/L | C-peptide reduction ([4]; group B (defined by C-peptide reduction >=50%), N = 26): 57.4 ± 5.5%
